Data taken from patent publication US20210147932A1, “FLUORESCENT PROBES FOR QUANTIFICATION OF DNA DAMAGE AND REPAIR” (The Board of Trustees of the Leland Stanford Junior …, priority 2019, published 2021).
Blank lines part the entries; values can stand above or below the molecule they belong to.

Key:
Type in all cases: biochemical
[1] = system: DNA AP site (AP site containing DNA, oligo 15); test: Fluorescence response of probe covalently attached to the AP site of a DNA hairpin; settings: for brightness when bound to the AP site compared to CCVJ1: Oligo 15 DNA
Experimental: FIG. 2B provides emission spectra of oligonucleotide-probe conjugates compared to the emission spectra of the free probe at 2 μM concentration in 50 mM Tris buffer pH 7.0. Excitation was at 470 nm for Compound (1) (also referred to herein as CCVJ1) and 450 nm for Compounds 8 and 9 (also referred to herein as NP1 and NP2) and Compounds 4 and 6 (also referred to herein as BD1 and BD2).
To assess the potential fluorescence response of each probe, a 17mer DNA hairpin containing a single AP site was prepared and reacted it with a 10-fold excess of probe overnight. The subsequent DNA-probe conjugates were precipitated to remove excess fluorophore and full DNA labelling was confirmed by MALDI-TOF mass spectrometry (Table 1). The reacted DNAs were re-suspended in buffer to a concentration of 2 μM and the emission spectra compared with the spectra of the free probes in solution. […] In addition to its large fluorescence response, CCVJ1 is accessed readily through a facile 4-step synthesis and has good spectral overlap with fluorescein. This makes the probe accessible to a wide range of researchers and well suited to the majority of fluorescence-based instruments.
(§1) In addition to the 5′ and 3′ neighboring bases, studies were done of the effect of the orphaned base Z paired opposite the abasic site on the UBER probe system (FIG. 10, panels C-D). Using the sequence where X=C and Y=G, the identity was varied of the base Z opposite the AP site. […] As a result, the smaller pyrimidine bases yielded a greater fluorescence light up response than the larger purine bases. It was also observed a strong effect by the opposing base on the rate of oxime formation (FIG. 10, panel D). […] This trend is in contrast to the neighboring base effect discussed above in which stronger stacking bases accelerated the rate of oxime formation.
(§2) General procedure for creating AP site DNA: A deoxyuridine containing oligonucleotide (typically 5-20 μM) was treated with 10 U/mL E. coli UDG (New England Biolabs) for 10 minutes at 37° C. in buffer to create AP site containing DNA (see below for MALDI-TOF confirmation). The hairpin was then reacted with probe from a DMSO stock solution (final DMSO concentration <5%).
Procedure for assessing fluorescence response of probes: To assess the fluorescence response of the probes, 25 μM AP site containing DNA (oligo 15) was prepared in a 20 μL solution and allowed to react with 500 μM of each probe overnight. The DNA was then precipitated by the addition of 80 μL 0.33 M sodium acetate and 300 μL ethanol and centrifuged at 21,100 g for 1 hr at 4° C. The resulting DNA pellet was washed twice with 70% EtOH and re-suspended in buffer to a concentration of 2 μM. A portion of the DNA pellet was used for MALDI-TOF analysis. The emission spectra of the probe-oligonucleotide conjugate was measured and compared against a 2 μM solution of the free probe

[2] = system: AP-DNA; test: Oxime formation kinetics of probe with AP-DNA; settings: 5 μM probe; for reaction rate of oxime formation relative to CCVJ1 (longer linker): 20 μM AP-DNA, 50 mM Tris pH 7.0; for rate of oxime formation with AP DNA: Oligo 15 20 μM, 37° C.
Experimental: FIG. 3 provides representative plots for calculations of k2 for Compound (1) (CCVJ1) under various buffer conditions with oligo 15. Plots were fitted in OriginPro 8.5 according to the equation derived by Larsen et. al.^5 for second-order rate constants of oxime formation. Apparent second-order rate constants were calculated as the average of three replicates.
FIG. 5A provides fluorescence real-times responses for oxime formation under varied conditions. The Time course of oxime formation between Compound (1) (CCVJ1) (5 μM) and AP-DNA (20 μM) under varied buffer conditions (50 mM) is shown. Ionic strength adjusted to 150 mM with NaCl
Next the reaction rates with CCVJ1 were evaluated. To measure oxime formation kinetics, 5 μM CCVJ1 was reacted with 20 μM AP DNA, and the resulting fluorescence time course was used to determine second-order rate constants by nonlinear regression analysis. Tris buffer was selected since it is commonly used in glycosylase assays with a salt concentration of 100 mM NaCl.
In addition to Tris buffer, oxime formation kinetics were also measured for CCVJ1 with AP DNA in a solution of a catalytic amine buffer previously shown to accelerate oxime formation. To this end, it was employed 50 mM N,N-dimethylethylenediamine (DEDA)•HCl buffered to a pH of 7.0 in place of the above Tris buffers. […] Such rapid rates of oxime formation at neutral pH are unprecedented for unactivated aldehydes.
as §1, §2
Fluorescence time courses: Unless otherwise stated, fluorescence time courses were collected on a Fluoroskan Ascent Microplate Fluorometer (Thermo Fisher Scientific) with black, non-binding 384 well plates (Greiner) at a reaction volume of 60 μL with 50 mM Tris buffer pH 7 (ionic strength adjusted to 100 mM with NaCl) with a fluorescein filter set (Ex. 485, Em. 538).

[3] = target: T1, OGG1 (Homo sapiens, UniProt O15527); test: OGG1 activity in MCF7 lysates with CCVJ1; settings: MCF7 lysate 0.2 mg/mL, 4 h incubation, 25 μM CCVJ1
T1 construct: host or cells: MCF-7 whole cell lysate
Experimental: FIG. 20 provides fluorescence measurement of MCF7 cell lysates (0.2 mg/mL) with 25 μM Compound (1) (CCVJ1) following a 4-hour incubation with 5 μM of an OGG1 hairpin substrate. The inhibitor SU0268 was used to abrogate OGG1 activity. Error bars represent standard deviation of three replicates.
Encouraged by the results, whether the UBER probe could detect endogenous glycosylase activity was tested from a more challenging target such as OGG1. It is well established that the turnover number of UNG is quite high (˜1-10 s^−1)^5 while the turnover number for many other glycosylases is quite low (0.001-0.1 s^−1). Additionally, most glycosylases, including OGG1, have very low basal expression levels in healthy cells. Given these facts, previous attempts to detect OGG1 activity in lysates have relied on a multistep signal amplification process or extended reaction times (24-48 hrs) to yield signal. […] In this case, the majority of the background signal observed was attributed to intercalation of probe into unreacted hairpin as well as genomic DNA.
(§3) Cell Lysate Experiments: HeLa or MCF-7 whole cell lysates (Santa Cruz Biotech) were used without further preparation. […] Fluorescence intensity was monitored over the course of 4 hours at 37° C.

[4] = system: AP site-containing DNA; test: Competition for oxime formation between CCVJ1 and AP site-containing DNA; settings: up to 500 μM linker, CCVJ1 5 μM, AP DNA 20 μM
Experimental: FIG. 6 provides effect of adding exemplary linker NH2CH2CH2ONH2 to the reaction of Compound (1) (CCVJ1) (5 μM) with AP site containing DNA (20 μM) in buffer.
FIG. 9 provides interaction between Compound (1) (CCVJ1) and DNA. […] (Ex. 485, Em. 538).
FIG. 14 provides effect of competing aldehydes/ketones on maximum fluorescence signal.
Additional experiments were performed to study the origins of this unusually rapid reaction. […] To test the effect that proximity between the alkoxyamine and planar portion of the probe had on oxime kinetics in our probes, probes were synthesized having variable-length linkers (CCVJ2 and CCVJ3) from aldehyde reactive linkers L2 and L3 respectively (FIG. 2A). […] To test the importance of a double-stranded DNA structure to the rate and fluorescence response, an AP-containing single-stranded DNA oligonucleotide was reacted with CCVJ1. At pH 7, CCVJ1 reacted with a second-order rate constant of 33 M^−1s^−1 with the single-stranded substrate, roughly 5-fold slower than a double-stranded hairpin with identical sequence context (FIG. 8).
To further explore the hypothesis that the oxime rate acceleration in these AP-site DNAs was related to base stacking interactions, the fluorescence was measured of CCVJ1 in the presence and absence of a non-lesion containing DNA hairpin.
Since the probe design involves conformational restriction to induce a light-up signal, it was hypothesized that off-target oxime formation with small molecules might induce a relatively small signal relative to DNA, thus providing a measure of selectivity in signaling. […] Another potential aspect is that ketones or aldehydes in the environment might compete with the DNA AP site to react with the aminooxy group, thereby consuming the free probe and reducing the maximum signal. Initial testing of the reactivity of CCVJ1 with AP site-containing DNA in the presence of increasing amounts of competing 2-deoxyribose, the closest small-molecule analogue to the DNA AP site. […] This was repeated this experiment with pyruvic acid, a highly reactive ketone and a common cellular metabolite.

[5] = target: T2, UNG (Homo sapiens, UniProt P13051); test: UGI IC50 measurement in UBER probe coupled assay; parameters: purchased OriGene; settings: UNG 5 nM, UGI 0.3 to 30 nM, initial rates after 25 minute delay, triplicate
Experimental: FIG. 15, panels A-G provides quantitative coupled assays using Compound (1) (CCJV1). Shown are data from reaction of lesion containing substrates with UNG and SMUG1 (5 nM) (panel A), MPG (100 nM) (panel B), NTH1 (500 nM) (panel C), OGG1 (100 nM) in real-time (panel D) with lesion containing DNA (2 μM) and CCVJ1 (20 μM) (panels A, B and D) or lesion containing DNA (60 μM) and CCVJ1 (20 μM) […]. […] Delay time tss of 25 minutes indicated with dotted line.
Based on the results of our neighboring base effect study, several glycosylase oligonucleotide substrates were purchased or prepared in which the identity of the base lesion X was varied to correspond to the known activities of different target glycosylases (FIG. 15, panel E). For these studies human enzymes SMUG1/UNG, OGG1, MPG and NTH1, were chosen which represent a diverse array of human glycosylases. […] Assays were carried out in a 60 μL volume in a 384 well format on a microplate reader using a fluorescein filter set. For each enzyme, it was possible to observe a robust fluorescence signal (FIG. 15, panels A-D).
To test the utility of the probe coupled assay for characterizing inhibitors, it was measured the IC50 value of the UNG inhibitor UGI (FIG. 15, panels F-G). […] In all cases, the z-factor of the assay was calculated to be >0.95, well above the threshold necessary for high throughput screening. […]

[6] = target: T2, UNG; test: UNG activity in HeLa cell lysate with CCVJ1; parameters: profile endogenous glycosylase activity in cell lysates; host or cells: HeLa whole cell lysate; settings: 1 U/mL UGI, 0.2 mg/mL HeLa lysate, 5 μM hairpin, 25 μM CCVJ1
Experimental: FIG. 19, panels A-B illustrates applications of an exemplary probe for measuring multiple repair activities in cell lysates. […] The inhibitor UGI was used at a concentration of 1 U/mL to completely abolish UNG activity. […] Activity was quantified by measuring initial rate velocity using 25 μM CCVJ1 with lysate (0.2 mg/mL) and 5 μM of UNG hairpin substrate.
It was first tested whether the UBER probe's ability to report on UNG activity in whole cell lysates using the previously described UNG hairpin substrate (FIG. 19, panel A). […] To confirm that the fluorescence response originated from endogenous UNG activity and not off-target binding with proteins or spontaneous depurination, lysate was treated with CCVJ1 and a control hairpin in which the lesion had been replaced by an undamaged T:A base pair. Importantly, the control hairpin yielded no fluorescence response indicating a low degree of false positive signal. […] CCVJ1 appears to represent the first fluorogenic probe to measure real-time UNG activity in cell lysates.
as §3

T2 sequence (P13051 whole entry): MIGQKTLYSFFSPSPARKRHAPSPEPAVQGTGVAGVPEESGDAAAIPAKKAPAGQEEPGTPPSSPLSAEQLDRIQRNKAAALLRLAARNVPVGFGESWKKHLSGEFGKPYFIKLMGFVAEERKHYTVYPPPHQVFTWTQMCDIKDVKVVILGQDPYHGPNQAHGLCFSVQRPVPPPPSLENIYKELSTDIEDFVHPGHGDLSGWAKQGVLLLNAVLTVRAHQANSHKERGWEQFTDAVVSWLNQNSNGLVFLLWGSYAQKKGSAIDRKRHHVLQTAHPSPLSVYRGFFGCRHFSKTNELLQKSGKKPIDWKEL
T1 sequence (O15527 whole entry): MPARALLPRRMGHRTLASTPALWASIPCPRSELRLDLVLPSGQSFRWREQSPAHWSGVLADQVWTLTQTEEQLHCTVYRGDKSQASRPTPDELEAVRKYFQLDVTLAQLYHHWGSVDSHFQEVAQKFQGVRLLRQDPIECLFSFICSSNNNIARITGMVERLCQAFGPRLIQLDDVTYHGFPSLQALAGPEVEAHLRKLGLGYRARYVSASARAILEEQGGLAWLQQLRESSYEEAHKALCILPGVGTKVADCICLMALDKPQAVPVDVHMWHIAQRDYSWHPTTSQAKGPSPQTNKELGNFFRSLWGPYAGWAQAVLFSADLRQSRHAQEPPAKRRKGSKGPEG

Molecule: N#C/C(=C\c1cc2c3c(c1)CCCN3CCC2)C(=O)NCCOCCON [CCVJ2]
brightness when bound to the AP site compared to CCVJ1 [1]: diminished compared to that of CCVJ1
reaction rate of oxime formation relative to CCVJ1 (longer linker) [2]: slowed the reaction rate considerably

Molecule: N#C/C(=C\c1cc2c3c(c1)CCCN3CCC2)C(=O)NCCOCCOCCON [CCVJ3]
brightness when bound to the AP site compared to CCVJ1 [1]: diminished compared to that of CCVJ1
reaction rate of oxime formation relative to CCVJ1 (longer linker) [2]: slowed the reaction rate considerably

Molecule: NC(=O)c1cccc(-c2ccc(S(=O)(=O)Nc3ccc4c(c3)N(C(=O)C3CC3)CCC4)cc2)c1 [SU0268]
effect of inhibitor on OGG1 repair activity in lysate [3]: completely abolished OGG1 repair activity

Molecule: CN(CCON)c1ccc2c3c(cccc13)C(=O)N(CCC(=O)O)C2=O [NP1]
fluorescence response with AP DNA [1]: substantial fluorescence responses
rate of oxime formation with AP DNA [2]: accelerated rates of oxime formation

Molecule: NCCON [Compound L1, NH2CH2CH2ONH2]
effect as competing alpha nucleophile on reaction of CCVJ1 with AP DNA [4]: no effect
effect as competing alpha nucleophile on reaction of CCVJ1 with AP DNA ([4]; listed as NH2CH2CH2ONH2): does not significantly compete with CCVJ1 for oxime formation

Molecule: CN(CCON)c1ccc(S(=O)(=O)N(C)C)c2nonc12 [BD2]
fluorescence response with AP DNA [1]: substantial fluorescence responses
rate of oxime formation with AP DNA [2]: accelerated rates of oxime formation

Molecule: CN(C)c1ccc(S(=O)(=O)N(C)CCON)c2nonc12 [BD1]
fluorescence response with AP DNA [1]: substantial fluorescence responses
rate of oxime formation with AP DNA [2]: accelerated rates of oxime formation

IC50 [5]: 7.53 ± 0.44 nM
B1: UGI: the UNG inhibitor UGI; tight 1:1 binding stoichiometry; protein inhibitor (protein, UniProt P14739 1-84, looked up)
Uracil-DNA glycosylase …: MTNLSDIIEKETGKQLVIQESILMLPEEVEEVIGNKPESDILVHTAYDESTDENVMLLTSDAPEYKPWALVIQDSNGENKIKML
effect of inhibitor on fluorescence response (UNG activity) in lysate [6]: completely ablated the fluorescence response
